According to patent publication US5459148A, “Biphenyl derivatives and their use for the treatment of hypertension and cardiac disease” (Sankyo Company, Limited, priority 1992, dated 1995):

These molecules were tested against T1, AII receptor (Rattus norvegicus, UniProt P25095) (assay: Inhibition of pressor response to intravenous angiotensin II (AII receptor blocking activity)). Details: 2 min, read-out: ID50 (dose required to inhibit the pressor response to intravenous angiotensin II by fifty percent).
T1 construct: from tissue; host or cells: whole anesthetized male Wister-Imamichi rat (in vivo, blood pressure in the femoral artery)
T1 sequence (P25095 1-359): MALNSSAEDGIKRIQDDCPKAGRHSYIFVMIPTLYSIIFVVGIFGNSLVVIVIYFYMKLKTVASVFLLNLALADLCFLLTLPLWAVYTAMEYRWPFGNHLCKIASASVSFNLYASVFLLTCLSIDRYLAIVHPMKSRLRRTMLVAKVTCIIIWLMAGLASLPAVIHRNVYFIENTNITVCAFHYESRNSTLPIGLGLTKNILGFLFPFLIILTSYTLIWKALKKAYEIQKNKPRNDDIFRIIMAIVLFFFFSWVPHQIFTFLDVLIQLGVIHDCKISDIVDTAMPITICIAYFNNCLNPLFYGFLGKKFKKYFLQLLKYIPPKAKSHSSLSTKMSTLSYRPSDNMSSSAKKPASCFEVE
Format: in vivo, rat (male Wister-Imamichi)
Experimental: Evaluation of AII receptor blocking activity by Inhibition of pressor response to angiotensin II
The biological activity of each compound was assessed by determining the dose required to inhibit the pressor response to intravenous angiotensin II by fifty percent (ID50) in rats. Male Wister-Imamichi rats, each weighing 300 to 400 g, were anesthesized by intraperitoneal injection of 100 mg/Kg of sodium thiobutabarbital [Inactin (trade name)] and two cannulae were inserted: one into the femoral artery for measuring blood pressure and the other into the femoral vein for injecting drugs. […] The percent inhibitions of the pressor response to angiotensin II by progressive increase of the test compound was used to calculate the value of ID50. Angiotensin II was used in this test dissolved in 0.5% bovine serum albumin (BSA) and the test compounds were dissolved in 100% dimethyl sulfoxide (DMSO).

**Q.** `CCCc1nc(C(C)(C)O)c(C(=O)O)n1Cc1ccc(-c2ccccc2C(=O)C(=O)O)cc1` [Example 1, 4-(1-Hydroxy-1-methylethyl)-1-[(2'-oxalobiphenyl-4-yl)methyl]-2-propylimidazole-5-carboxylic acid] was tested. Which ED50 did it give?
**A.** 0.0065 mg/kg

**Q.** `CCCCc1nc(C(C)(C)O)c(C(=O)O)n1Cc1ccc(-c2ccccc2C(=O)C(=O)O)cc1` [Example 2, 2-Butyl-4-(1-hydroxy-1-methylethyl)-1-[(2'-oxalobiphenyl-4-yl)methyl]imidazole-5-carboxylic acid] was tested. Which ED50 did it give?
**A.** 0.026 mg/kg

**Q.** For `CCCc1nc(CO)c(C(=O)O)n1Cc1ccc(-c2ccccc2C(=O)C(=O)O)cc1` [Example 6, 4-Hydroxymethyl-1-[(2'-oxalobiphenyl-4-yl)methyl]-2-propylimidazole-5-carboxylic acid], which ED50 is on record?
**A.** 0.02 mg/kg

**Q.** For `CCCc1nc(C(C)(C)O)c(-c2nnn[nH]2)n1Cc1ccc(-c2ccccc2C(=O)C(=O)O)cc1` [Example 7, {4'-[4-(1-Hydroxy-1-methylethyl)-2-propyl-5-(tetrazol-5-yl)imidazol-1-ylmethyl]biphenyl-2-yl}glyoxylic acid], which ED50 is on record?
**A.** 0.021 mg/kg

**Q.** For `C=C(C)c1nc(CCC)n(Cc2ccc(-c3ccccc3C(=O)C(=O)O)cc2)c1C(=O)O` [Example 8, 4-Isopropenyl-1-[(2'-oxalobiphenyl-4-yl)methyl]-2-propylimidazole-5-carboxylic acid], which ED50 is on record?
**A.** 0.06 mg/kg

**Q.** `CCCc1nc(C(C)C)c(C(=O)O)n1Cc1ccc(-c2ccccc2C(=O)C(=O)O)cc1` [Example 9, 4-Isopropyl-1-[(2'-oxalobiphenyl-4-yl)methyl]-2-propylimidazole-5-carboxylic acid] was tested. Which ED50 did it give?
**A.** 0.053 mg/kg

**Q.** For `CCCc1nc(C(O)C(C)C)c(C(N)=O)n1Cc1ccc(-c2ccccc2C(=O)C(=O)O)cc1` (stereo not shown) [Example 10, 4-(1-Hydroxy-2-methylpropyl)-1-[(2'-oxalobiphenyl-4-yl)-methyl]-2-propylimidazole-5-carboxamide], which ED50 is on record?
**A.** 0.022 mg/kg

**Q.** Which ED50 does the source give for `CCCc1nc(C(O)C(C)(C)C)c(C(N)=O)n1Cc1ccc(-c2ccccc2C(=O)C(=O)O)cc1` (stereo not shown) [Example 11, 4-(1-Hydroxy-2,2-dimethylpropyl)-1-[(2'-oxalobiphenyl-4-yl)methyl]-2-propylimidazole-5-carboxamide] here?
**A.** 0.017 mg/kg

**Q.** With `CCCCc1nc(C(O)C(C)C)c(C(N)=O)n1Cc1ccc(-c2ccccc2C(=O)C(=O)O)cc1` (stereo not shown) [Example 12, 2-Butyl-4-(1-hydroxy-2-methylpropyl)-1-[(2'-oxalobiphenyl-4-yl)methyl]imidazole-5-carboxamide] as the molecule, how does the ED50 read?
**A.** 0.042 mg/kg

**Q.** With `CCCCc1nc(C(O)C(C)(C)C)c(C(N)=O)n1Cc1ccc(-c2ccccc2C(=O)C(=O)O)cc1` (stereo not shown) [Example 13, 2-Butyl-4-(1-hydroxy-2,2-dimethylpropyl)-1-[(2'-oxalobiphenyl-4-yl)methyl]imidazole-5-carboxamide] as the molecule, how does the ED50 read?
**A.** 0.048 mg/kg

**Q.** How did the ED50 turn out when `CCOCc1nc(C(C)(C)O)c(C(=O)O)n1Cc1ccc(-c2ccccc2C(=O)C(=O)O)cc1` [Example 14, 2-Ethoxymethyl-4-(1-hydroxy-1-methylethyl)-1-[(2'-oxalobiphenyl-4-yl)methyl]imidazole-5-carboxylic acid] was run?
**A.** 0.0096 mg/kg

**Q.** Which ED50 does the source give for `CCc1nc2c(C)cc(C)nc2n1Cc1ccc(-c2ccccc2C(=O)C(=O)O)cc1` [Example 16, 2-Ethyl-5,7-dimethyl-3-(2'-oxalobiphenyl-4-yl)methyl-3H-imidazo[4,5-b]pyridine] here?
**A.** 0.024 mg/kg

**Q.** How did the ED50 turn out when `CCCc1nc(C(C)(C)O)c(C(=O)O)n1Cc1ccc(-c2ccccc2C(=O)c2nnn[nH]2)cc1` [Example 20, 4-(1-Hydroxy-1-methylethyl)-1-{[2'-(tetrazol-5-ylcarbonyl)biphenyl-4-yl]methyl}-2-propylimidazole-5-carboxylic acid] was run?
**A.** 0.026 mg/kg
